Measured values taken from the NIST ThermoML archive (doi:10.1016/j.tca.2014.08.033).

Conditions: Liquid, DSC

O [water]
Conditions | vapor or sublimation pressure [kPa]
354.7 K | 49.7
366.85 K | 79.6
373.47 K | 100.66
406.69 K | 298.53
425.39 K | 498.99

CCCCCCCCCCCCCCCC [hexadecane]
Conditions | vapor or sublimation pressure [kPa]
486.1 K | 14.78
529.6 K | 49.76
549.3 K | 79.6
560.5 K | 101.35
560.9 K | 102.04

CN1C(=O)CC[C@H]1c1cccnc1 [(S)-cotinine]
Conditions | vapor or sublimation pressure [kPa]
537.7 K | 14.95
548.4 K | 19.9
564.2 K | 29.82
585.6 K | 49.74
601.3 K | 69.56
607.4 K | 79.5
619.2 K | 101.32
655.4 K | 197.04
669.7 K | 247.52

c1cncc(C2CCCCN2)c1 (configuration not stated) [(.+-.)-anabasine]
Conditions | vapor or sublimation pressure [kPa]
478 K | 14.95
488 K | 19.9
502.9 K | 29.84
523 K | 49.73
543.5 K | 79.59
555.1 K | 99.57
602.5 K | 248.35
631.3 K | 398.33
640.7 K | 468.91
644.3 K | 498.63

CN1CCC[C@H]1c1cccnc1 [(-)-3-(N-methylpyrrolidino)pyridine]
Conditions | vapor or sublimation pressure [kPa]
447.7 K | 14.96
457.2 K | 19.93
471.1 K | 29.87
490.6 K | 49.83
510.1 K | 79.61
520.4 K | 99.84
566.4 K | 247.84
594.8 K | 397.81
609.3 K | 500.02
617.8 K | 568.97

Cc1ccccc1 [toluene]
Conditions | vapor or sublimation pressure [kPa]
327.6 K | 14.9
360.7 K | 49.6
375.8 K | 79.3
383.5 K | 100.66
384.3 K | 102.73
451 K | 498.3
451.5 K | 499.9
490.4 K | 1009.3
